# Like-named read-outs stand apart in the source and are kept apart here.
# Columns and labels:
# RIL-175 HCC vasculature = experiment: Tumor vessel and hypoxia immunofluorescence (CD31, α-SMA, CA-IX) in RIL-175 orthotopic HCC; type: in vivo, mouse; details: regorafenib 10 mg/kg; day 12; vs control
# Protocol: Figure 1 Dose-dependent effects of regorafenib on vascular normalization when used in combination with programmed cell death protein 1 (PD1) blockade in RIL-175 hepatocellular carcinoma (HCC) model. (A, B) Mice with established (4–5 mm in diameter) HCCs were treated with anti-PD1 therapy (P) alone or in combination with 5 mg/kg (R5), 10 mg/kg (R10) or 20 mg/kg (R20) regorafenib versus control (C) (n=8 mice per group, 1-week treatment). We used immunofluorescence (IF) for evaluation of tumor vessels by CD31 and α-smooth muscle actin (α-SMA) immunostaining. […] Representative IF of tumor sections after staining for CD31 (for endothelial cells in green) and α-SMA (for pericytes in red) and DAPI counterstaining (in blue). Five random fields from the tumor center (defined as no inclusion of the edge of the tumor) were evaluated for each sample. Data represent mean values. Scale bars=500 µm. (C) Representative IF confocal microscopy images of tumor vessels using and CD31 staining (green) and tissue hypoxia using CA-IX staining (red) of whole liver sections; scale bars=2 mm. […] (E) Representative IF confocal microscopy images of mature tumor vessels using CD31 staining (green) and α-SMA staining (red) of RIL-175 tumors; scale bars, 100 µm.
# in vivo = details: C57Bl/6, mouse, po; for AUC: Plasma AUC; for Cmax: Plasma Cmax
# Protocol: (§1) From the orthotopic HCC and liver damage mouse models described above, blood samples were collected at 1, 4, 7 and 24 hours after once-daily oral administration of 5, 10 and 20 mg/kg regorafenib, respectively, for 5 days. Anti-PD1 antibody was given on days 1 and 4 with dose of 10 mg/kg by intraperitoneal injection. Blood samples were drawn from four to five animals per sampling time point. Regorafenib and its active metabolites M-2, M-4 and M-5 were analyzed in plasma samples using a validated bioanalytical liquid chromatography-tandem mass spectrometry.[25 33] Pharmacokinetic (PK) parameters were derived from the area under the plasma concentration versus time curve (AUC) using a non-compartmental analysis.
# (§2) In addition, we evaluated PK parameters in HCC-bearing mice after regorafenib administration alone at doses of 5, 10 and 20 mg/kg or in combination with anti-PD1 therapy at the 10 mg/kg regorafenib dose for 5 days to achieve a steady state.
# [1] = in vivo
# Protocol: as §1, §2
# RIL-175 cells = experiment: STAT1/STAT3 activity in RIL-175 cells in vitro (western blot); type: cell-based, mouse; details: 1 µM in vitro
# Protocol: (A) Changes induced by combination of regorafenib (10 mg/kg) with anti-PD1 antibody in immune-related pathways from the gene set enrichment analysis (GSEA) using curated gene sets in RIL-175 HCC model (see also online supplemental dataset S1 and figure S2E). (B, C) Changes induced by combination of regorafenib (10 mg/kg) with anti-PD1 antibody in STAT3 and STAT1 activity (B), showing an increased ratio of phosphorylated (p)-STAT1/p-STAT3 (normalized to total STAT1 and STAT3, respectively) by western blot analysis of whole RIL-175 HCC tissue (C) (n=4 mice). (D) Treatment with regorafenib increases CXCL10 expression by RIL-175 HCC cells in vitro after 36 hours, in a dose-dependent manner (n=6). Culture medium alone was used as a negative control (NC). […] (J, K) Combination therapy increases CXCL10 protein expression in whole RIL-175 tumor tissue 6 hours and 12 hours after in vivo when regorafenib treatment was used at doses of 10 mg/kg (R10) and 20 mg/kg (R20) (n=3) by western blot analysis (J); quantitative data of CXCL10/β-actin ratios are shown in (K). […]
# Flow cytometry analysis. […] After preparation, cells were suspended in 2ml of PBS with 2% BSA, then counted using a cell counting plate (Kova slide) (if the final concentration of cell exceeded 10^7 cells/ml, a dilution factor was applied). […]
# [2] = Pharmacokinetic analysis of regorafenib and metabolites in plasma and tumor tissue of mice with HCC and liver damage; details: n=4-5 mice
# Protocol: as §1, §2
smiles,measurement,setting,value
CNC(=O)c1cc(Oc2ccc(NC(=O)Nc3ccc(Cl)c(C(F)(F)F)c3)c(F)c2)ccn1 [regorafenib],Hypoxic tissue area measured by CA-IX staining,RIL-175 HCC vasculature,significantly decreased
same,MVD,RIL-175 HCC vasculature,significant increase
same,AUC,in vivo; 5 mg/kg,1450 ng·h/mL
same,Cmax,in vivo; 5 mg/kg,108 ng/mL
same,AUC,in vivo; 10 mg/kg,2160 ng·h/mL
same,Cmax,in vivo; 10 mg/kg,201 ng/mL
same,Tmax,"in vivo; 10 mg/kg, Plasma Tmax",1 h
same,Tmax,"in vivo; 10 mg/kg, Tumor Tmax",7 h
same,AUC,in vivo; 20 mg/kg,5750 ng·h/mL
same,Cmax,in vivo; 20 mg/kg,485 ng/mL
same,Tumor AUC,"[1]; C57Bl/6, mouse, po, 5 mg/kg",2320 ng·h/mL
same,Tumor AUCnorm,"[1]; C57Bl/6, mouse, po, 5 mg/kg",0.465 kg·h/L
same,Tumor Cmax,"[1]; C57Bl/6, mouse, po, 5 mg/kg",191 µg/kg
same,Plasma AUC,"[1]; C57Bl/6, mouse, po, 10 mg/kg",2140 ng·h/mL
same,Plasma Cmax,"[1]; C57Bl/6, mouse, po, 10 mg/kg",190 ng/mL
same,Tumor AUC,"[1]; C57Bl/6, mouse, po, 10 mg/kg",4670 ng·h/mL
same,Tumor AUCnorm,"[1]; C57Bl/6, mouse, po, 10 mg/kg",0.467 kg·h/L
same,Tumor Cmax,"[1]; C57Bl/6, mouse, po, 10 mg/kg",291 µg/kg
same,Tumor AUC,"[1]; C57Bl/6, mouse, po, 20 mg/kg",7930 ng·h/mL
same,Tumor AUCnorm,"[1]; C57Bl/6, mouse, po, 20 mg/kg",0.396 kg·h/L
same,Tumor Cmax,"[1]; C57Bl/6, mouse, po, 20 mg/kg",575 µg/kg
same,"Cmax in the tumor tissue, combination group versus R10 group",[1]; mouse,higher
same,Plasma AUC0–24 and Cmax versus dose,[1]; mouse,dose-proportional
same,Tumor AUC0–24 and Cmax versus dose,[1]; mouse,dose-proportional increase
same,Plasma AUCnorm,"[1]; mouse, po, 5 mg/kg",0.290 kg·h/L
same,Plasma AUCnorm,"[1]; mouse, po, 10 mg/kg",0.241 kg·h/L
same,Plasma AUCnorm,"[1]; mouse, po, 20 mg/kg",0.287 kg·h/L
same,STAT1 and STAT3 activity (p-STAT1/p-STAT3) in RIL-175 cells,RIL-175 cells,STAT1 activation and STAT3 inhibition
same,"Plasma maximum concentration (Cmax), R10 alone versus R10+P",[2],No difference

# From PMC7689089, “Regorafenib combined with PD1 blockade increases CD8 T-cell infiltration by inducing CXCL10 expression in hepatocellular carcinoma” (Journal for Immunotherapy of Cancer, 2020)
